# Results published in the kinase profiling compilation of Christmann-Franck et al. (2016).
# Legend:
# Experiment in all cases: radiometric filter-binding kinase assay, Kinase HotSpot
# Details in all cases: compound 0.5 µM; ATP 10 µM
# ACVR1B (human) = ACVR1B (human) (UniProt P36896)
# AURKB (human) = AURKB (human) (UniProt Q96GD4)
# AXL (human) = AXL (human) (UniProt P30530)
# CAMK1D (human) = CAMK1D (human) (UniProt Q8IU85)
# CDK5 CDK5R1 p35 (human) = CDK5 CDK5R1 p35 (human) (UniProt Q00535+Q15078)
# CDK9 CCNK (human) = CDK9 CCNK (human) (UniProt O75909+P50750)
# CDK9 CCNT1 (human) = CDK9 CCNT1 (human) (UniProt P50750+O60563)
# CDK9 CCNT1 (human), sequence (O60563 whole entry, looked up): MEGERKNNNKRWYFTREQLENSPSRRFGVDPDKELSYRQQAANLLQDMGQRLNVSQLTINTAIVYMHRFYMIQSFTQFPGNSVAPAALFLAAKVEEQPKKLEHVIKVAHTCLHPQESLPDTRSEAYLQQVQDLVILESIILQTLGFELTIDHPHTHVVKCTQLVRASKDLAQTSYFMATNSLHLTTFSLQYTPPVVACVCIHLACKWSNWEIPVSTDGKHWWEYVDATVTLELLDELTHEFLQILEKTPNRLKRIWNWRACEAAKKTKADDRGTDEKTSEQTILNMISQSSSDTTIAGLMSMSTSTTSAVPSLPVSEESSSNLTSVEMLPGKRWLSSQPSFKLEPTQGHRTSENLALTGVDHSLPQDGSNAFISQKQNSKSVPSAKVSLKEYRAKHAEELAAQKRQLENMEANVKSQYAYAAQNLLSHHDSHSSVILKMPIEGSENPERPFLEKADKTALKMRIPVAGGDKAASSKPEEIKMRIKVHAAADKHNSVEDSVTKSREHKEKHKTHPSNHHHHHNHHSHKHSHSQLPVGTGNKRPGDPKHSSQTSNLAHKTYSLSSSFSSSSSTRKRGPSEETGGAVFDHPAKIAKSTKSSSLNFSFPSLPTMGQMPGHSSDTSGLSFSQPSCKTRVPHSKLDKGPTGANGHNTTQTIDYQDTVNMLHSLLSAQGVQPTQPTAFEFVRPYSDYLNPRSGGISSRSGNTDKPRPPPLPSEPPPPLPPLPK
# CDK9 CCNT1 (human), sequence (P50750 whole entry, looked up): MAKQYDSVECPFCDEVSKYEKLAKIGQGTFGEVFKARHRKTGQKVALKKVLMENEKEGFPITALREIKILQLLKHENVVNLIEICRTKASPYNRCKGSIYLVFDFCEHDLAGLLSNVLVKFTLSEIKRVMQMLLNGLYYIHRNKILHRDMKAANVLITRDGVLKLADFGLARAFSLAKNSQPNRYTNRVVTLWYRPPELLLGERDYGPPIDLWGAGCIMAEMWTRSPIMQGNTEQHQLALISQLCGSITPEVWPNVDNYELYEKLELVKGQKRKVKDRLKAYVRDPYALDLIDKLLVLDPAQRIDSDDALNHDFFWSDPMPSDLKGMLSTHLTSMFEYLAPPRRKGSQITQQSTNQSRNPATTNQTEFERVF
# CLK1 (human) = CLK1 (human) (UniProt P49759)
# CSNK1G1 (human) = CSNK1G1 (human) (UniProt Q9HCP0)
# DAPK1 (human) = DAPK1 (human) (UniProt P53355)
# FLT3 (human) = FLT3 (human) (UniProt P36888)
# FYN (human) = FYN (human) (UniProt P06241)
# HCK (human) = HCK (human) (UniProt P08631)
# IGF1R (human) = IGF1R (human) (UniProt P08069)
# IGF1R (human), sequence (P08069 whole entry, looked up): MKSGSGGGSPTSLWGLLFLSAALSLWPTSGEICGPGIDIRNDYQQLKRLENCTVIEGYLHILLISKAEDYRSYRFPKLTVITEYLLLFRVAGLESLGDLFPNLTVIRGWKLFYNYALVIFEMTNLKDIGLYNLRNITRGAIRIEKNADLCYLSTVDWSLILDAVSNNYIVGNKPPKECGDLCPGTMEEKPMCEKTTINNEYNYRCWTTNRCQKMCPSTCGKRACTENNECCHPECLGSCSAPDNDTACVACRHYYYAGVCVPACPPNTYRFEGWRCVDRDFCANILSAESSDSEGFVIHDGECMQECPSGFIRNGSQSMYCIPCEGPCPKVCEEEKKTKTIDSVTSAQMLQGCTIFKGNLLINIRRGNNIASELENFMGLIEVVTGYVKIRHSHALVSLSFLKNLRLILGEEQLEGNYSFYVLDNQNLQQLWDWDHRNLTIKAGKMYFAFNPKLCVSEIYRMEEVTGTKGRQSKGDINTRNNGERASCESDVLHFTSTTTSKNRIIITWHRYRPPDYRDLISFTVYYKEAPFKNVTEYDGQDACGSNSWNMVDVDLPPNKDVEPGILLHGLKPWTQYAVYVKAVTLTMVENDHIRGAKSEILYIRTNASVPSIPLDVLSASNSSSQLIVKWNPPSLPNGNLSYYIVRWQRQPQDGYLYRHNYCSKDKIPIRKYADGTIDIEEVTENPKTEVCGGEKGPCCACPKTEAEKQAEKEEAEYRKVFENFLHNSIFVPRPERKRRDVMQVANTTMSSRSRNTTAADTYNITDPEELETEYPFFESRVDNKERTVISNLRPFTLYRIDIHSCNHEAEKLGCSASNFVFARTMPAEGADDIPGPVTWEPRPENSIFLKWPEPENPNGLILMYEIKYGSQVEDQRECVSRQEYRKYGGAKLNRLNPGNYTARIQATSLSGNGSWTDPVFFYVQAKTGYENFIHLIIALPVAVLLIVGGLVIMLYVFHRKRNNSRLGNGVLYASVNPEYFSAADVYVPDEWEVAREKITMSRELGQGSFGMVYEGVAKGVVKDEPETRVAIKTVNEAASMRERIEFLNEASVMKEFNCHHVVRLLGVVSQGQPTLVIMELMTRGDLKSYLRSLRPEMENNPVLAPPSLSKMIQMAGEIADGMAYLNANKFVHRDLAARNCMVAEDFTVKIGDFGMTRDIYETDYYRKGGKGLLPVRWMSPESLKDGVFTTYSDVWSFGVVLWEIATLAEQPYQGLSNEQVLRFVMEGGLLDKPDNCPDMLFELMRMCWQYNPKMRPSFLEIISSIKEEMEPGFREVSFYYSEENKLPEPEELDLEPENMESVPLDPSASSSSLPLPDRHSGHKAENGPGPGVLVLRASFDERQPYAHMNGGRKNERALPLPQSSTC
# IKBKE (human) = IKBKE (human) (UniProt Q14164)
# INSR (human) = INSR (human) (UniProt P06213)
# JAK3 JH1 JH2 (human) = JAK3 JH1 JH2 (human) (UniProt P52333)
# MAP3K5 (human) = MAP3K5 (human) (UniProt Q99683)
# MAP3K8 (human) = MAP3K8 (human) (UniProt P41279)
# MAP3K9 (human) = MAP3K9 (human) (UniProt P80192)
# MAP4K5 (human) = MAP4K5 (human) (UniProt Q9Y4K4)
# MAPKAPK2 (human) = MAPKAPK2 (human) (UniProt P49137)
# MARK3 (human) = MARK3 (human) (UniProt P27448)
# NEK7 (human) = NEK7 (human) (UniProt Q8TDX7)
# PAK1 (human) = PAK1 (human) (UniProt Q13153)
# PAK3 (human) = PAK3 (human) (UniProt O75914)
# PBK (human) = PBK (human) (UniProt Q96KB5)
# PLK2 (human) = PLK2 (human) (UniProt Q9NYY3)
# PRKCE (human) = PRKCE (human) (UniProt Q02156)
# PRKCG (human) = PRKCG (human) (UniProt P05129)
# PRKG2 (human) = PRKG2 (human) (UniProt Q13237)
# RPS6KA2 KD1 KD2 (human) = RPS6KA2 KD1 KD2 (human) (UniProt Q15349)
# SRPK2 (human) = SRPK2 (human) (UniProt P78362)
# SRPK2 (human), sequence (P78362 whole entry, looked up): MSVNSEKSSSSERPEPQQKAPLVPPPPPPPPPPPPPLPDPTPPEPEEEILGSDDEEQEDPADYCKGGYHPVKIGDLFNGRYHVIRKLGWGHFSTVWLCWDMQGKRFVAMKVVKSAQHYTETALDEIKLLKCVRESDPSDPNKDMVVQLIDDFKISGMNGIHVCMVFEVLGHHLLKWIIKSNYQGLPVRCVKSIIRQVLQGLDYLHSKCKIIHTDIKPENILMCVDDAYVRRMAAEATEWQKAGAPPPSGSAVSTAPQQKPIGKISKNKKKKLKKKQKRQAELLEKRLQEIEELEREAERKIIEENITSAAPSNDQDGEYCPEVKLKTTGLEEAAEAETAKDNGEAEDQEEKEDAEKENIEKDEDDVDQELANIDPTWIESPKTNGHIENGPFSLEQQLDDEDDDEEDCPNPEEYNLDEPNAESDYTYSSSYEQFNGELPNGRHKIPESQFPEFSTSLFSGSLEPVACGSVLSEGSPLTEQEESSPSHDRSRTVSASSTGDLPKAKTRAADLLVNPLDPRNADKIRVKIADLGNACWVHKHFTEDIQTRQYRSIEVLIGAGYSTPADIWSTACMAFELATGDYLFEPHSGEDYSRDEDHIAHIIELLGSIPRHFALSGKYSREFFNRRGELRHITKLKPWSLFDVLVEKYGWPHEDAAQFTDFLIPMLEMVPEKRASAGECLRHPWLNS
# SRPK3 (human) = SRPK3 (human) (UniProt Q9UPE1)
# SRPK3 (human), sequence (Q9UPE1 whole entry, looked up): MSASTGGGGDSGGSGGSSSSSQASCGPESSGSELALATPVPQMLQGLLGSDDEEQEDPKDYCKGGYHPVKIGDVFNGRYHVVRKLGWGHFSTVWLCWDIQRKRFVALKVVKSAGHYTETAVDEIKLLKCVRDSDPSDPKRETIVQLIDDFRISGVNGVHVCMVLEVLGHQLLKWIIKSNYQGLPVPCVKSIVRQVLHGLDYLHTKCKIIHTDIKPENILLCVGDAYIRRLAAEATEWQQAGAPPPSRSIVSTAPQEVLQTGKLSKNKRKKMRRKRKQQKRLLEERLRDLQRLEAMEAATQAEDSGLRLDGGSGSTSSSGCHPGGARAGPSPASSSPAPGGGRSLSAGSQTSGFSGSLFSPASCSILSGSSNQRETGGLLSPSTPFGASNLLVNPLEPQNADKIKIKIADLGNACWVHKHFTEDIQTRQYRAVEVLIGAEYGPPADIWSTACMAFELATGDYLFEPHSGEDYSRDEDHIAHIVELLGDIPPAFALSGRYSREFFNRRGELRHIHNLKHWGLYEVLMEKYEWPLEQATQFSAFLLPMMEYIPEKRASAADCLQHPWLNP
# STK11 (human) = STK11 (human) (UniProt Q15831)
# STK33 (human) = STK33 (human) (UniProt Q9BYT3)
# TGFBR1 (human) = TGFBR1 (human) (UniProt P36897)
# TNK2 (human) = TNK2 (human) (UniProt Q07912)
# TSSK1B (human) = TSSK1B (human) (UniProt Q9BXA7)
# TXK (human) = TXK (human) (UniProt P42681)
# ULK1 (human) = ULK1 (human) (UniProt O75385)
# TEK (human) = TEK (human) (UniProt Q02763)
# AXL (human), sequence (P30530 whole entry, looked up): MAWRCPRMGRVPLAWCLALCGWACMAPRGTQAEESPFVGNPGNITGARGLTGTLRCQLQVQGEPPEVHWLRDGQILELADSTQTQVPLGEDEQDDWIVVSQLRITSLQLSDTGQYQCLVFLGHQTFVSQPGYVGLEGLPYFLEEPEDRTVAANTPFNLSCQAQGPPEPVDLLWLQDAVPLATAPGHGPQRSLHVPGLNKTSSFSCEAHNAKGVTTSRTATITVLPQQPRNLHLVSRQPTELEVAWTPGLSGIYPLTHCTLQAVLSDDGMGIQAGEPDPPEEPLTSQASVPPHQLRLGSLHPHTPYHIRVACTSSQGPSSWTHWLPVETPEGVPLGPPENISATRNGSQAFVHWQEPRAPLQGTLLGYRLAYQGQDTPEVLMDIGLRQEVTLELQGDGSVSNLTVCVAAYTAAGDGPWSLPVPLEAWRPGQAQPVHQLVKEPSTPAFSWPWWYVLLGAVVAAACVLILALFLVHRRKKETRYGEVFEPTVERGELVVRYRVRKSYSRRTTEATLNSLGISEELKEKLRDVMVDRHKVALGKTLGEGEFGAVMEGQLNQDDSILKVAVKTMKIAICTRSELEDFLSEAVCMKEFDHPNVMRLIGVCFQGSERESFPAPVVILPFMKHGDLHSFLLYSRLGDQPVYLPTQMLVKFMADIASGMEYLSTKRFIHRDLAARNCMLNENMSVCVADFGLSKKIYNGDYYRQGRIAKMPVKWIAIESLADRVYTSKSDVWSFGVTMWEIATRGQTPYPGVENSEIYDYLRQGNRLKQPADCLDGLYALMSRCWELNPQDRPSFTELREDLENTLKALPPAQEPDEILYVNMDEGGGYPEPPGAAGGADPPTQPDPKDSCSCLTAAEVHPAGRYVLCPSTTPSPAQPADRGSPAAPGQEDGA
# AURKB (human), sequence (Q96GD4 whole entry, looked up): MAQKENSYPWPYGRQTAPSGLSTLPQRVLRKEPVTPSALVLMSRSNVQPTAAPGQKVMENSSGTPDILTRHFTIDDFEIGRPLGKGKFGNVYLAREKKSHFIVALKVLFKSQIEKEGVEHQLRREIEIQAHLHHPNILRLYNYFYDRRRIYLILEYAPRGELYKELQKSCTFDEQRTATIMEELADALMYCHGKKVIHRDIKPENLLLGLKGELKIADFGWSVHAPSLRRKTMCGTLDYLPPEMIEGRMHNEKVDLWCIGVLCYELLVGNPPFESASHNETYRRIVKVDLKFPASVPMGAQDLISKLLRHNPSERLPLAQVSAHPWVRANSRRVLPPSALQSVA
compound,measurement,setting,value
O=C(c1ccccc1)c1ccc(N2CCOCC2)cc1O,residual activity,ACVR1B (human),104%
same,residual activity,AURKB (human),95.5%
same,residual activity,AXL (human),95.1%
same,residual activity,CAMK1D (human),99.1%
same,residual activity,CDK5 CDK5R1 p35 (human),97%
same,residual activity,CDK9 CCNK (human),97.8%
same,residual activity,CDK9 CCNT1 (human),97.9%
same,residual activity,CLK1 (human),108%
same,residual activity,CSNK1G1 (human),105%
same,residual activity,DAPK1 (human),92.5%
same,residual activity,FLT3 (human),90.6%
same,residual activity,FYN (human),106%
same,residual activity,HCK (human),114%
same,residual activity,IGF1R (human),106%
same,residual activity,IKBKE (human),101%
same,residual activity,INSR (human),92.9%
same,residual activity,JAK3 JH1 JH2 (human),103%
same,residual activity,MAP3K5 (human),97.8%
same,residual activity,MAP3K8 (human),99.6%
same,residual activity,MAP3K9 (human),112%
same,residual activity,MAP4K5 (human),100%
same,residual activity,MAPKAPK2 (human),102%
same,residual activity,MARK3 (human),105%
same,residual activity,NEK7 (human),104%
same,residual activity,PAK1 (human),91.8%
same,residual activity,PAK3 (human),99.4%
same,residual activity,PBK (human),114%
same,residual activity,PLK2 (human),111%
same,residual activity,PRKCE (human),92.3%
same,residual activity,PRKCG (human),95.6%
same,residual activity,PRKG2 (human),102%
same,residual activity,RPS6KA2 KD1 KD2 (human),102%
same,residual activity,SRPK2 (human),102%
same,residual activity,SRPK3 (human),103%
same,residual activity,STK11 (human),104%
same,residual activity,STK33 (human),108%
same,residual activity,TGFBR1 (human),94.3%
same,residual activity,TNK2 (human),104%
same,residual activity,TSSK1B (human),107%
same,residual activity,TXK (human),98.5%
same,residual activity,ULK1 (human),98.9%
O=S(=O)(NCCNC/C=C/c1ccc(Br)cc1)c1cccc2cnccc12,residual activity,AURKB (human),97.8%
same,residual activity,AXL (human),112%
same,residual activity,CAMK1D (human),85.5%
same,residual activity,CDK9 CCNK (human),85.5%
same,residual activity,CDK9 CCNT1 (human),87.8%
same,residual activity,CLK1 (human),103%
same,residual activity,CSNK1G1 (human),97.2%
same,residual activity,DAPK1 (human),81.5%
same,residual activity,FLT3 (human),89.6%
same,residual activity,FYN (human),107%
same,residual activity,HCK (human),99.4%
same,residual activity,IGF1R (human),104%
same,residual activity,IKBKE (human),92.3%
same,residual activity,INSR (human),94.3%
same,residual activity,JAK3 JH1 JH2 (human),122%
same,residual activity,MAP3K5 (human),93.2%
same,residual activity,MAP3K8 (human),99.4%
same,residual activity,MAP3K9 (human),99.6%
same,residual activity,MAP4K5 (human),30.9%
same,residual activity,MARK3 (human),96.2%
same,residual activity,NEK7 (human),96.9%
same,residual activity,PAK1 (human),90.2%
same,residual activity,PAK3 (human),103%
same,residual activity,PBK (human),107%
same,residual activity,PRKCE (human),86.4%
same,residual activity,PRKCG (human),83.8%
same,residual activity,PRKG2 (human),56.9%
same,residual activity,RPS6KA2 KD1 KD2 (human),79.2%
same,residual activity,SRPK2 (human),88.3%
same,residual activity,SRPK3 (human),98%
same,residual activity,STK11 (human),102%
same,residual activity,STK33 (human),79.5%
same,residual activity,TEK (human),99.8%
same,residual activity,TGFBR1 (human),97%
same,residual activity,TNK2 (human),88.3%
same,residual activity,TSSK1B (human),93.5%
same,residual activity,TXK (human),86.8%
same,residual activity,ULK1 (human),102%
c1ccc(-c2cnc(Nc3ccc(OCCN4CCCC4)cc3)s2)cc1,residual activity,ACVR1B (human),101%
same,residual activity,AURKB (human),75.8%
same,residual activity,AXL (human),97.1%
same,residual activity,CAMK1D (human),101%
same,residual activity,CDK5 CDK5R1 p35 (human),82.4%
same,residual activity,CDK9 CCNK (human),39.8%
same,residual activity,CDK9 CCNT1 (human),66.1%
same,residual activity,CLK1 (human),89.4%
same,residual activity,CSNK1G1 (human),94.7%
same,residual activity,DAPK1 (human),95.1%
same,residual activity,FLT3 (human),3.1%
same,residual activity,FYN (human),81.1%
same,residual activity,HCK (human),98.6%
same,residual activity,IGF1R (human),112%
same,residual activity,IKBKE (human),81.6%
same,residual activity,INSR (human),95%
same,residual activity,JAK3 JH1 JH2 (human),108%
same,residual activity,MAP3K5 (human),91.1%
same,residual activity,MAP3K8 (human),97.2%
same,residual activity,MAP3K9 (human),94.3%
same,residual activity,MAP4K5 (human),72.5%
same,residual activity,MARK3 (human),93.1%
same,residual activity,NEK7 (human),100%
same,residual activity,PAK1 (human),97%
same,residual activity,PAK3 (human),99.1%
same,residual activity,PBK (human),108%
same,residual activity,PLK2 (human),105%
same,residual activity,PRKCE (human),90.5%
same,residual activity,PRKCG (human),92.5%
same,residual activity,PRKG2 (human),106%
same,residual activity,RPS6KA2 KD1 KD2 (human),85%
same,residual activity,SRPK2 (human),103%
same,residual activity,SRPK3 (human),98.2%
same,residual activity,STK11 (human),103%
same,residual activity,STK33 (human),91%
same,residual activity,TEK (human),102%
same,residual activity,TGFBR1 (human),97%
same,residual activity,TNK2 (human),66.6%
same,residual activity,TSSK1B (human),96.5%
same,residual activity,TXK (human),91.1%
same,residual activity,ULK1 (human),127%
